We go through 20 compounds from patent publication US9023844B2, “Heterocyclylpyri (mi) dinylpyrazole as fungicidals” (Bayer Intellectual Property GmbH, priority 2011, dated 2015).

SMILES strings stand for the structures. Where two headings read alike, the source gives them in different places.

Data set [1] deals with Sphaerotheca fuliginea. The data set can be described thus: Example A: Sphaerotheca test (cucumber) / preventive. The class given is in vivo. As to conditions: in vivo.
The test system of data set [2] is Pyrenophora teres. The data set can be described thus: Example D: Pyrenophora test (barley) / preventive. As to conditions: in vivo. Type of data set: in vivo.
Data set [3] is described as follows: Determination of log P values by HPLC on a reverse phase column (C18), EEC-Directive 79/831 Annex V.A8 (Methods A, B, C). The class given is physicochemical. Conditions: for chromatographic logP: reverse phase C18 HPLC column. A digest of the protocol: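 Three C18 chromatographic methods following EEC-Directive 79/831 Annex V.A8 gave the logP values. Method C (UPLC, 2.1 mm column) ran at 40 °C and 0.8 mL/min with a 3.25 min 10–95% acetonitrile gradient. Methods A and B both ran at 55 °C and 2.0 mL/min, with gradients of 10–95% in 4.25 min and 5–95% in 1.70 min.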

The subject of data set [4] is DON/Acetyl-DON production by Fusarium graminearum. As to the kind of experiment: microbe, parasite or virus in culture. Type of data set: cell-based. Conditions: at 50 μM.
Data set [5] concerns Pyricularia oryzae. Type of data set: in vivo. Conditions: in vivo.
Data set [6] deals with Uromyces appendiculatus. As to the kind of experiment: Example B: Uromyces test (beans) / preventive. As to conditions: in vivo. The class given is in vivo.
The subject of data set [7] is Puccinia recondita. The data set can be described thus: Example E: Puccinia test (wheat) / preventive. The class given is in vivo. Conditions: in vivo.
Data set [8] concerns Fusarium graminearum. The data set can be described thus: microbe, parasite or virus in culture. The class given is cell-based. As to conditions: for Growth inhibition of Fusarium graminearum in %: at 50 μM.
For data set [9], the system named is Leptosphaeria nodorum. The data set can be described thus: Example C: Leptosphaeria test (wheat) / preventive. The class given is in vivo. Conditions: in vivo.
Data set [10] has as its system Fusarium graminearum. The class given is in vivo. As to conditions: in vivo.
The test system of data set [11] is Septoria tritici. The data set can be described thus: Example J: Septoria tritici test (wheat) / preventive. Type of data set: in vivo. Conditions: in vivo.
In data set [12] the test system is Fusarium nivale (var. majus). As to the kind of experiment: Example K: Fusarium nivale (var. majus) test (wheat) / preventive. The class given is in vivo. Conditions: 500 ppm of active ingredient, preventive spray, evaluated 5 days after inoculation. The protocol:
After the spray coating has been dried, the plants are slightly injured by using a sandblast and afterwards they are sprayed with a conidia suspension of Fusarium nivale (var. majus).
The test is evaluated 5 days after the inoculation.

Setting [13] is: Method C (HPLC, reverse phase C18).
The mark [14] stands for this setting: Method B (HPLC, reverse phase C18).

On to `CCC(=O)Nc1cc(-c2c(-c3ccc(F)cc3)nn3c2NCCC3)ccn1` [Example 80], for which the efficacy in data set [1] stood at 93%; in [2], 100%; in data set [5] it was 90%; in [6], 78%. Further, the LogP in [3] (setting [13]) worked out at 1.35. The “Inhibition of DON/AcDON in %” value in data set [4] is listed as 100%.
For `CCC(C)C(=O)Nc1cc(-c2c(-c3ccc(F)cc3F)nn3c2OCCC3)ccn1` (stereo not shown) [Example 39], the efficacy in data set [1] is 98%; in data set [2] it was 95%; in data set [7] it was 100%; in data set [5] it was 94%; in [6] it was 94%. In data set [3] (setting [14]), this compound registered a LogP of 1.85. For the same compound, the “Inhibition of DON/AcDON in %” value in data set [4] is reported as 99%. In data set [8], the “Growth inhibition of Fusarium graminearum in %” value (“Growth inhibition … in %” below) is 89%.
As to `CC(C)CC(=O)Nc1cc(-c2c(-c3ccc(F)cc3F)nn3c2OCCC3)ccn1` [Example 40], the efficacy in data set [1] was 98%; in data set [2], 95%; in [7], 100%; in [5] it was 94%; in [6], 94%. Besides, in data set [3] (setting [14]), the LogP is 1.88. Besides, the “Inhibition of DON/AcDON in %” value in data set [4] was found to be 99%. Besides, in data set [8], the “Growth inhibition … in %” value is on record as 85%.
Regarding `CC(C)C(=O)Nc1cc(-c2c(-c3ccsc3)nn3c2OC[Si](C)(C)C3)ccn1` [Example 101], the efficacy in data set [9] is listed as 80%; in data set [2], 100%; in data set [5], 80%; in [6] it was 75%. Further, the LogP in [3] (setting [13]) was found to be 2.11. Also, in data set [4], the “Inhibition of DON/AcDON in %” value amounted to 100%. Moreover, the “Growth inhibition … in %” value in data set [8] is reported as 93%.
As to `O=C(CC1CC1)Nc1cc(-c2c(-c3ccccc3)nn3c2OCCC3)ccn1` [Example 13], the efficacy in data set [1] worked out at 70%; in [10], 71%; in data set [2], 95%; in data set [7] it was 95%; in data set [5], 100%; in data set [11], 100%. The efficacy in data set [6] is 92%. For the same compound, in [3] (setting [14]), the LogP amounted to 1.54.
Turning to `CC(=O)Nc1cc(-c2c(-c3ccccc3)nn3cccnc23)ccn1` [Example 51, N-[4-(2-phenylpyrazolo[1,5-a]pyrimidin-3-yl)pyridin-2-yl]acetamide], the chromatographic logP came out at 1.41 in data set [3] (Method C (HPLC, reverse phase C18), read-out: LogP) and 1.41 in data set [3] (pH 2.7, values in the synthesis examples, HPLC, reverse phase C18, read-out: log P (pH 2.7)). Moreover, the inhibition at 50 µM in data set [4] (Fusarium graminearum, read-out: Inhibition of DON/AcDON in %) was determined as 100%; in data set [8] (Fusarium graminearum, read-out: Growth inhibition of Fusarium graminearum in %) it was 90%.
`CC(=O)Nc1cc(-c2c(-c3ccc(F)cc3)nn3c2OCC3)ccn1` [Example 1]: the efficacy is on record as 75% in [1], 88% in [9], 95% in [2] and 70% in [5]. The LogP in data set [3] (setting [14]) came out at 1.19. For the same compound, the “Inhibition of DON/AcDON in %” value in data set [4] stood at 98%. In addition, the “Growth inhibition … in %” value in data set [8] came out at 90%.
For the compound `O=C(CC(F)(F)F)Nc1cc(-c2c(-c3ccc(F)cc3F)nn3c2OCCC3)ccn1` [Example 46], the efficacy in data set [10] was 86%; in data set [2], 90%; in [7], 100%; in data set [5] it was 94%; in data set [11] it was 88%; in [6], 94%. Also, the LogP in data set [3] (setting [14]) came out at 2.13.
Take `O=C(C1CC1)N(C(=O)C1CC1)c1cc(-c2c(-c3ccc(F)cc3)nn3cccnc23)ccn1` [Example 84]: the efficacy is 88% in data set [1]; 83% in data set [10]; 90% in data set [2]; 100% in [12]; 90% in data set [5]; 88% in data set [11]. The compound also showed a log partition coefficient (LogP) in data set [3] (setting [13]) of 2.94.
As for `O=C(Nc1cc(-c2c(-c3ccc(F)cc3)nn3cccnc23)ccn1)C1CC1` [Example 88], the efficacy worked out at 93% in data set [1], 95% in [2] and 90% in [5]. Further, the LogP in data set [3] (setting [13]) is 1.75. Moreover, the “Inhibition of DON/AcDON in %” value in data set [4] was 70%. In addition, the “Growth inhibition … in %” value in data set [8] was 55%.
`CSCC(=O)Nc1cc(-c2c(-c3ccc(F)cc3F)nn3c2OCCC3)ccn1` [Example 45]: the efficacy in data set [1] stood at 95%; in [2], 90%; in data set [7] it was 90%; in [5], 94%; in data set [6] it was 92%. Moreover, in data set [3] (setting [14]), the LogP is listed as 1.75. Moreover, the “Inhibition of DON/AcDON in %” value in [4] came out at 100%. The “Growth inhibition … in %” value in data set [8] stood at 78%.
Take `O=C(Nc1cc(-c2c(-c3ccccc3)nn3c2OCCC3)ccn1)C1CC1` [Example 7]: the efficacy in data set [1] was determined as 95%; in data set [9], 90%; in data set [2], 95%; in data set [7], 100%; in [5], 94%; in [6], 94%. Besides, in data set [3] (setting [14]), the LogP is on record as 1.25.
Consider `CC(C)(C)CC(=O)Nc1cc(-c2c(-c3ccc(F)cc3)nn3c2OCCC3)ccn1` [Example 34], for which the efficacy in [1] worked out at 95%; in [9], 90%; in data set [10] it was 86%; in data set [2] it was 100%; in [12], 75%; in data set [7], 100%. For the same compound, the efficacy is 94% in data set [5], 88% in data set [11] and 94% in data set [6]. The compound also yielded a LogP in data set [3] (setting [14]) of 2.04.
`C[C@H](O)C(=O)Nc1cc(-c2c(-c3ccccc3)nn3c2OCCC3)ccn1` [Example 12]: the efficacy in data set [1] is reported as 83%; in data set [9], 80%; in data set [10], 86%; in [2], 100%; in data set [12] it was 93%; in data set [7] it was 100%. Also, the efficacy stood at 100% in [5], 100% in data set [11] and 94% in data set [6]. The LogP in data set [3] (setting [14]) worked out at 1.2.
For `O=C(CC(F)(F)F)Nc1cc(-c2c(-c3ccc(F)cc3)nn3c2OCCC3)ccn1` [Example 31], the efficacy is reported as 88% in [1]; 86% in data set [10]; 95% in [2]; 100% in data set [12]; 100% in data set [7]; 94% in [5]. Moreover, the efficacy in data set [11] was determined as 100%; in [6], 92%. In data set [3] (setting [14]), this compound yielded a LogP of 2.13.
Turning to `CC(C)C(=O)N(C(=O)C(C)C)c1cc(-c2c(-c3ccccc3)nn3c2NCCC3)ccn1` [Example 92], the figures for the efficacy in [1], in data set [7] and in data set [6] were 100%, 78% and 78%, respectively. The LogP in data set [3] (setting [13]) turned out to be 3.08. In data set [4], the “Inhibition of DON/AcDON in %” value is recorded as 99%.
Consider `O=C(CC1CC1)Nc1cc(-c2c(-c3ccc(F)cc3)nn3c2OCCC3)ccn1` [Example 27], for which the efficacy is 95% in [1]; 90% in data set [9]; 86% in data set [10]; 95% in [2]; 100% in data set [7]; 100% in data set [5]. The same compound came in with an efficacy in [11] of 100%. Besides, in [3] (setting [14]), the LogP came out at 1.69.
As for `O=C(Nc1cc(-c2c(-c3ccc(F)cc3F)nn3c2OCCC3)ccn1)C1CC1` [Example 36], the efficacy is 100% in data set [1]; 90% in [9]; 100% in data set [10]; 95% in data set [2]; 88% in [12]; 100% in [7]. In addition, the efficacy in data set [5] is recorded as 94%; in data set [11], 88%; in data set [6], 92%. Besides, the log partition coefficient (LogP) in data set [3] (setting [14]) is 1.42.
In the case of `CC(C(=O)Nc1cc(-c2c(-c3ccccc3)nn3c2OCCC3)ccn1)c1ccc(F)cc1` (stereo not shown) [Example 18], the efficacy came to 93% in data set [1]; 90% in [9]; 95% in [2]; 95% in data set [7]; 94% in [5]; 94% in data set [6]. In data set [3] (setting [14]), this compound had a LogP of 2.27.
Compound `O=C(Nc1cc(-c2c(-c3ccc(F)cc3)nn3c2OCCC3)ccn1)C(=O)N1CCCCC1` [Example 70] had a log partition coefficient (LogP) in [3] (setting [14]) of 2.23. The “Inhibition of DON/AcDON in %” value in [4] stood at 90%. In addition, in data set [8], the “Growth inhibition … in %” value is listed as 76%.
